# According to patent US11384055B2 (BIOMARIN PHARMACEUTICAL INC., priority 2017, dated 2022):
# Target: T1, Human GO (Homo sapiens, UniProt Q9UJM8)
# T1 construct: purchased Novus Biologicals NBP1-72412
# T1 sequence (Q9UJM8 1-370): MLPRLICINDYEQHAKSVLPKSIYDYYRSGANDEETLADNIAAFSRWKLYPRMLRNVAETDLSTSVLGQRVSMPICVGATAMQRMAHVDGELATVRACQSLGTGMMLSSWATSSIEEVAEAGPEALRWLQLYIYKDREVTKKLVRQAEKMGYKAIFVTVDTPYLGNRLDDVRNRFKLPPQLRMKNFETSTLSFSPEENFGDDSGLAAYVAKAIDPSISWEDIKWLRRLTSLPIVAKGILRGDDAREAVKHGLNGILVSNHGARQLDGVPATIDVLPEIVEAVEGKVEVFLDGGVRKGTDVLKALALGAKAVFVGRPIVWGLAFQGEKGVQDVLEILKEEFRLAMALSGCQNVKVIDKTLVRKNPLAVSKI
# Assay: GO enzymatic assay (coupled fluorescence/HRP assay, glycolate substrate)
# Type: biochemical
# Conditions: not given
# Method in brief: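 Human GO incubated with glycolate substrate in 50 mM potassium phosphate, pH 7, with varying inhibitor concentrations. Activity read by coupled HRP fluorescence. IC50 taken from variable-slope sigmoidal dose-response fits of percent inhibition relative to DMSO control.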
row,IC50,SMILES
1,< 0.1 µM,"CS(=O)(=O)c1ccc(-c2ccc(Oc3[nH]nnc3C(=O)O)cc2)cc1 [Compound 401, 4-((4′-(methylsulfonyl)-[1,1′-biphenyl]-4-yl)oxy)-1H-1,2,3-triazole-5-carboxylic acid 2,2,2-trifluoroacetate]"

# Same assay, conditions: Table 2; read-out: Range (range of IC50 values calculated from the enzymatic assays)
row,SMILES,IC50
1,"O=C(O)c1[nH]nnc1OC1CCN(c2cc(Cl)cc(OC(F)(F)F)c2)CC1 [Compound 354, 4-((1-(3-chloro-5-(trifluoromethoxy)phenyl)piperidin-4-yl)oxy)-1H-1,2,3-triazole-5-carboxylic acid]",< 0.1 µM
2,"O=C(O)c1[nH]nnc1Oc1cc(OCC2CCCC2)ccc1Cl [Compound 357, 4-(2-chloro-5-(cyclopentylmethoxy)phenoxy)-1H-1,2,3-triazole-5-carboxylic acid]",< 0.1 µM
3,"O=C(O)c1[nH]nnc1O[C@H]1CC[C@@H](c2ccc(OC(F)(F)F)c(Cl)c2)CC1 [Compound 360, 4-(((cis)-4-(3-chloro-4-(trifluoromethoxy)phenyl)cyclohexyl)oxy)-1H-1,2,3-triazole-5-carboxylic acid]",< 0.1 µM
4,"O=C(O)c1[nH]nnc1OC1CCN(c2ccc(OC(F)(F)F)c(Cl)c2)CC1 [Compound 361, 4-((1-(3-chloro-4-(trifluoromethoxy)phenyl)piperidin-4-yl)oxy)-1H-1,2,3-triazole-5-carboxylic acid]",< 0.1 µM
5,"O=C(O)c1[nH]nnc1Oc1ccc(Cl)c(OCc2ccc(F)cc2)c1 [Compound 362, 4-(4-chloro-3-((4-fluorobenzyl)oxy)phenoxy)-1H-1,2,3-triazole-5-carboxylic acid]",< 0.1 µM
6,"NC(=O)c1ccc([C@H]2CC[C@H](Oc3nn[nH]c3C(=O)O)CC2)cc1 [Compound 364, 4-(((trans)-4-(4-carbamoylphenyl)cyclohexyl)oxy)-1H-1,2,3-triazole-5-carboxylic acid 2,2,2-trifluoroacetate]",< 0.1 µM
7,"N#Cc1ccc([C@H]2CC[C@@H](Oc3nn[nH]c3C(=O)O)CC2)cc1 [Compound 365, 4-(((cis)-4-(4-cyanophenyl)cyclohexyl)oxy)-1H-1,2,3-triazole-5-carboxylic acid]",< 0.1 µM
8,"O=C(O)c1[nH]nnc1OC1CCN(c2cc(Cl)ccc2OC(F)(F)F)CC1 [Compound 367, 4-((1-(5-chloro-2-(trifluoromethoxy)phenyl)piperidin-4-yl)oxy)-1H-1,2,3-triazole-5-carboxylic acid 2,2,2-trifluoroacetate]",< 0.1 µM
9,"O=C(O)c1[nH]nnc1O[C@H]1CC[C@@H](c2ccc(N3CCC(F)(F)CC3)cc2)CC1 [Compound 368, 4-(((cis)-4-(4-(4,4-difluoropiperidin-1-yl)phenyl)cyclohexyl)oxy)-1H-1,2,3-triazole-5-carboxylic acid 2,2,2-trifluoroacetate]",< 0.1 µM
10,"O=C(O)c1[nH]nnc1OCC1C2CN(c3ccc(Cl)c(Cl)c3)CC12 (stereo not drawn) [Compound 369, 4-((3-(3,4-dichlorophenyl)-3-azabicyclo[3.1.0]hexan-6-yl)methoxy)-1H-1,2,3-triazole-5-carboxylic acid]",< 0.1 µM
11,"O=C(O)c1[nH]nnc1SCC1C2CN(c3ccc(Cl)c(Cl)c3)CC12 (stereo not drawn) [Compound 373, 4-(((3-(3,4-dichlorophenyl)-3-azabicyclo[3.1.0]hexan-6-yl)methyl)thio)-1H-1,2,3-triazole-5-carboxylic acid]",< 0.1 µM
12,"O=C(O)c1[nH]nnc1Oc1cccc(OC2CCCC2)c1 [Compound 375, 4-(3-(cyclopentyloxy)phenoxy)-1H-1,2,3-triazole-5-carboxylic acid 2,2,2-trifluoroacetate]",< 0.1 µM

# The remaining lines, values ahead:
row,IC50,SMILES
1,< 0.1 µM,"O=C(O)c1[nH]nnc1O[C@H]1CC[C@@H](c2cc(Cl)cc(OC(F)(F)F)c2)CC1 [Compound 355, 4-(((cis)-4-(3-chloro-5-(trifluoromethoxy)phenyl)cyclohexyl)oxy)-1H-1,2,3-triazole-5-carboxylic acid]"
2,< 0.1 µM,"O=C(O)c1[nH]nnc1O[C@H]1CC[C@@H](c2ccc(N3CCCC3)cc2)CC1 [Compound 356, 4-(((cis)-4-(4-(pyrrolidin-1-yl)phenyl)cyclohexyl)oxy)-1H-1,2,3-triazole-5-carboxylic acid 2,2,2-trifluoroacetate]"
3,< 0.1 µM,"O=C(O)c1[nH]nnc1Oc1cc(Cl)cc(OC(F)(F)F)c1 [Compound 358, 4-(3-chloro-5-(trifluoromethoxy)phenoxy)-1H-1,2,3-triazole-5-carboxylic acid]"
4,< 0.1 µM,"N#Cc1ccc(N2CCC(Oc3nn[nH]c3C(=O)O)CC2)cc1 [Compound 359, 4-((1-(4-cyanophenyl)piperidin-4-yl)oxy)-1H-1,2,3-triazole-5-carboxylic acid 2,2,2-trifluoroacetate]"
5,< 0.1 µM,"NC(=O)c1ccc([C@H]2CC[C@@H](Oc3nn[nH]c3C(=O)O)CC2)cc1 [Compound 363, 4-(((cis)-4-(4-carbamoylphenyl)cyclohexyl)oxy)-1H-1,2,3-triazole-5-carboxylic acid 2,2,2-trifluoroacetate]"
6,> 10 µM,"CCN(CC)C(=O)OCOC(=O)c1[nH]nnc1O[C@H]1CC[C@H](c2ccc(OC(F)(F)F)cc2)CC1 [Compound 370, ((diethylcarbamoyl)oxy)methyl 4-(((trans)-4-(4-(trifluoromethoxy)phenyl)cyclohexyl)oxy)-1H-1,2,3-triazole-5-carboxylate]"

# Same assay, conditions: Table 3; read-out: Range (range of IC50 values calculated from the enzymatic assays)
row,IC50,SMILES
1,0.1 to 1 µM,"O=C(O)c1[nH]nnc1OC(Cc1ccc(-c2ccc(OC(F)(F)F)cc2)cc1)Cc1ccc(-c2ccc(OC(F)(F)F)cc2)cc1 [Compound 366, 4-((1,3-bis(4′-(trifluoromethoxy)-[1,1′-biphenyl]-4-yl)propan-2-yl)oxy)-1H-1,2,3-triazole-5-carboxylic acid]"
2,0.1 to 1 µM,"O=C(O)c1[nH]nnc1CCN(Cc1ccc(Cl)cc1)Cc1ccc(Cl)cc1 [Compound 372, 4-(2-(bis(4-chlorobenzyl)amino)ethyl)-1H-1,2,3-triazole-5-carboxylic acid 2,2,2-trifluoroacetate]"
3,0.1 to 1 µM,"O=C(O)c1[nH]nnc1CCN(Cc1ccc(Cl)cc1)Cc1ccc(-c2ccc(OC(F)(F)F)cc2)cc1 [Compound 374, 4-(2-((4-chlorobenzyl)((4′-(trifluoromethoxy)-[1,1′-biphenyl]-4-yl)methyl)amino)ethyl)-1H-1,2,3-triazole-5-carboxylic acid 2,2,2-trifluoroacetate]"

# Same assay, conditions: Table 4; read-out: Range (range of IC50 values calculated from the enzymatic assays)
row,SMILES,IC50
1,"N#Cc1ccc(-c2ccc(Sc3nn[nH]c3C(=O)O)cc2)cc1 [Compound 389, 4-((4′-cyano-[1,1′-biphenyl]-4-yl)thio)-1H-1,2,3-triazole-5-carboxylic acid 2,2,2-trifluoroacetate]",< 0.1 µM
2,"O=C(O)c1[nH]nnc1Oc1ccc(F)c(OCc2ccc(OC(F)(F)F)cc2)c1 [Compound 400, 4-(4-fluoro-3-((4-(trifluoromethoxy)benzyl)oxy)phenoxy)-1H-1,2,3-triazole-5-carboxylic acid 2,2,2-trifluoroacetate]",< 0.1 µM
3,"O=C(O)c1[nH]nnc1SC1CCN(c2cc(OC(F)(F)F)ccc2Cl)CC1 [Compound 402, 4-((1-(2-chloro-5-(trifluoromethoxy)phenyl)piperidin-4-yl)thio)-1H-1,2,3-triazole-5-carboxylic acid]",< 0.1 µM
4,"O=C(O)c1[nH]nnc1Oc1ccc(-c2ccc(N3CCCCC3)cc2)c(Cl)c1 [Compound 406, 4-((2-chloro-4′-(piperidin-1-yl)-[1,1′-biphenyl]-4-yl)oxy)-1H-1,2,3-triazole-5-carboxylic acid 2,2,2-trifluoroacetate]",< 0.1 µM
5,"O=C(O)c1[nH]nnc1Oc1ccc(-c2ccc(N3CCCCC3)cc2Cl)cc1 [Compound 407, 4-((2′-chloro-4′-(piperidin-1-yl)-[1,1′-biphenyl]-4-yl)oxy)-1H-1,2,3-triazole-5-carboxylic acid]",< 0.1 µM

# Continued, values first:
row,IC50,SMILES
1,0.1 to 1 µM,"O=C(O)c1[nH]nnc1OC(c1ccccc1)C(O)c1ccc(Cl)cc1 (stereo not drawn) [Compound 378, 4-(2-(4-chlorophenyl)-2-hydroxy-1-phenylethoxy)-1H-1,2,3-triazole-5-carboxylic acid]"
2,0.1 to 1 µM,"CC(OC(=O)c1[nH]nnc1O[C@H]1CC[C@H](c2ccc(OC(F)(F)F)cc2)CC1)OC(=O)C1CCCCC1 (stereo partly drawn) [Compound 391, 1-((cyclohexanecarbonyl)oxy)ethyl 4-(((trans)-4-(4-(trifluoromethoxy)phenyl)cyclohexyl)oxy)-1H-1,2,3-triazole-5-carboxylate]"
3,0.1 to 1 µM,"CCC(OC(=O)c1[nH]nnc1O[C@H]1CC[C@H](c2ccc(OC(F)(F)F)cc2)CC1)OC(=O)C1CCCCC1 (stereo partly drawn) [Compound 392, 1-((cyclohexanecarbonyl)oxy)propyl 4-(((trans)-4-(4-(trifluoromethoxy)phenyl)cyclohexyl)oxy)-1H-1,2,3-triazole-5-carboxylate]"
4,< 0.1 µM,"O=C(O)c1[nH]nnc1O[C@H]1CC[C@H](c2cc(Cl)ccc2OC(F)(F)F)CC1 [Compound 393, 4-(((trans)-4-(5-chloro-2-(trifluoromethoxy)phenyl)cyclohexyl)oxy)-1H-1,2,3-triazole-5-carboxylic acid]"

# Same assay, conditions: Table 5; GO enzymatic assay; read-out: Range (range of IC50 values calculated from the enzymatic assays)
row,IC50,SMILES
1,0.1 to 1 µM,"O=C(O)c1[nH]nnc1OC(c1ccccc1)C(O)c1ccc(Cl)cc1 (stereo not drawn) [Compound 378, 4-(2-(4-chlorophenyl)-2-hydroxy-1-phenylethoxy)-1H-1,2,3-triazole-5-carboxylic acid]"
2,0.1 to 1 µM,"O=C(O)c1[nH]nnc1OC(Cc1ccc(Cl)cc1)Cc1ccc(-c2ccc(OC(F)(F)F)cc2)cc1 (stereo not drawn) [Compound 385, 4-((1-(4-chlorophenyl)-3-(4′-(trifluoromethoxy)-[1,1′-biphenyl]-4-yl)propan-2-yl)oxy)-1H-1,2,3-triazole-5-carboxylic acid 2,2,2-trifluoroacetate]"
